Measurements as given in US11214536B2, “Polymorphs and uses thereof” (Inspirna, Inc., priority 2017, dated 2022).

Test: Dynamic Vapor Sorption (DVS), hygroscopicity, with XRPD of the post-DVS solid
Format: physicochemical
Details: for mass uptake at 90% RH by DVS analysis: 25° C., DVS sorption/desorption cycles; for hygroscopic nature by DVS analysis: assessed from mass uptake at 90% RH; for solid form of the post-DVS sample (XRPD): XRPD analysis on solid retained after DVS
Method: Approximately, 10-20 mg of sample was placed into a mesh vapor sorption balance pan and loaded into a DVS Advantage dynamic vapor sorption balance by Surface Measurement Systems. The sample was subjected to a ramping profile from 40-90% relative humidity (RH) at 10% increments, maintaining the sample at each step until a stable weight had been achieved (dm/dt 0.004%, minimum step length 30 minutes, maximum step length 500 minutes) at 25° C. After completion of the sorption cycle, the sample was dried using the same procedure to 0% RH and then a second sorption cycle back to 40% RH. Two cycles were performed. The weight change during the sorption/desorption cycles were plotted, allowing for the hygroscopic nature of the sample to be determined. XRPD analysis was then carried out on any solid retained.

Compound	mass uptake at 90% RH by DVS analysis	mass uptake at 90% RH by DVS analysis (listed as amorphous compound)	hygroscopic nature by DVS analysis	solid form of the post-DVS sample (XRPD)
CC(CCOc1cccc(CC(=O)O)c1)N(Cc1cccc(C(F)(F)F)c1Cl)CC(c1ccccc1)c1ccccc1 (stereo not shown) [amorphous material]	about 6.17%	about 6.17%	highly hygroscopic	remained amorphous
CC(CCOc1cccc(CC(=O)O)c1)N(Cc1cccc(C(F)(F)F)c1Cl)CC(c1ccccc1)c1ccccc1 (stereo not shown) [Form 5]	about 2.7%		slightly hygroscopic	partially amorphous Form 5 material
CC(CCOc1cccc(CC(=O)O)c1)N(Cc1cccc(C(F)(F)F)c1Cl)CC(c1ccccc1)c1ccccc1 (stereo not shown) [Form 4]	about 1.16%		slightly hygroscopic	no change in the solid form
CC(CCOc1cccc(CC(=O)O)c1)N(Cc1cccc(C(F)(F)F)c1Cl)CC(c1ccccc1)c1ccccc1 (stereo not shown) [Form 6]	about 2.3%		slightly hygroscopic	no significant change in the solid form
